What was measured:
[1] = test system: A2780, MCF-7 and SMMC-7721; assay: MTT test, three cancer cell lines together; assay type: cell-based; conditions: on A2780, MCF-7 and SMMC-7721, range over the three lines
Protocol: (§1) (Nunc). To check the interference effects of candidate membranes. […]
(§2) Microplate Spectrophotometer with excitation wavelength (Boster). being 432 nm. The IC50 calculations were performed by Graphpad Prism 5 (Graphpad software, Inc.). Key residues discovery
(§3) Tests of candidate compounds on suppressing In the present study, key residues involved in the […]
(§4) by using site-directed mutagenesis and FPA competition
(§5) Cell lines including A2780, MCF-7 and SMMC- assays in combination. According to the results of pairwise 7721 were cultured to the logarithmic growth phase per-residue free energy decomposition, the residues in 3 ml complete media (RPMI1640 plus 10%FBS), contributing a lot to the binding of PUMA/Comp8 to 4 Mcl-1 were subjected to site-directed mutagenesis. By respectively. After adjusting their concentrations to 5×10 reference to the primers listed in Supplementary Table5, cells/ml with complete media, these cell lines were plated overlapping extension PCR was conducted to realize into 96-well, transparent, flat-bottom plates (150 μl/well), site-directed mutagenesis. After verified by gene each point was prepared in three replicates. The density sequencing, the individually mutated PCR products were of cultured cell lines was evaluated by MTT tests. When cloned into the expressing vector pET-43.1a (+). […]

SMMC-7721 cells = assay: MTT test on suppressing cancer cells, SMMC-7721; assay type: cell-based; conditions: Homo sapiens, 24h
Protocol: as §1, §2, §3, §4, §5

[2] = test system: DLD-1 cells infected with Ad-PUMA; assay: PUMA-dependent apoptosis of DLD-1 cells infected with Ad-PUMA (Caspase-Glo 3/7); assay type: cell-based; conditions: Homo sapiens, DLD-1, Ad-PUMA, 48h
Protocol: (§6) Tests of candidate compounds on blocking Synthesis of compound 8
(§7) PUMA-dependent apoptosis To a suspension of rhodanine (7.57 mmol) in dry Construction and validation of recombinant ethanol (10 mL), 4-Biphentlaldehyde (11.3 mmol), N-(2-Adenovirus By taking pHBAd-MCMV-GFP (Hanbio) as hydroxyethyl) piperazine (11.3 mmol), and glacial acetic vector, the construction and purification of Adenoviruses acid (0.75 mmol) were added and the resulting mixture overexpressing PUMA and PUMA-∆BH3 (PUMA was further stirred under reflux for 5-6 h. The reaction was without the BH3 domain) were performed according to completed and then cooled in an ice bath. The precipitated former reports. […]
(§8) various multiplicity of infection (MOI, 6 points, from 0 The crystal structure of Comp8 was solved by X-ray to 160) in 96-well, white, flat-bottom plates (Nunc). […] Shake gently and record the luminescence of each well on TECAN Infinite M1000 S.Y.Z., H.C., J.N.L and J.Y.L. conceived the project.
(§9) Microplate Spectrophotometer. The data were analyzed J.Y.L. and Z.T. designed the experiment. J.Y.L., Z.T., by Graphpad Prism and suitable MOI of Ad-PUMA for N.Z., X.Y.L. and C.Y.L. performed the experiments and following cell infection can be determined in this process. prepared the manuscript. […]
(§10) added to make the final compound concentrations range 2. […] The results were detected by flexible docking. […]

A2780 cells = assay: MTT test on suppressing cancer cells, A2780; assay type: cell-based; conditions: Homo sapiens, 24h
Protocol: as §1, §2, §3, §4, §5

MCF-7 cells = assay: MTT test on suppressing cancer cells, MCF-7; assay type: cell-based; conditions: Homo sapiens, MCF7, 24h
Protocol: as §1, §2, §3, §4, §5

[3] = test system: HUVECs infected with Ad-PUMA; assay: PUMA-induced apoptosis of HUVECs infected with Ad-PUMA (Caspase-Glo 3/7); assay type: cell-based; conditions: low-dose, less than 12.5 μM, 48h
Protocol: as §6, §7, §8, §9, §10

Mcl-1R244A = target: T1, Mcl-1R244A (Homo sapiens, UniProt Q07820, R263A); assay: FPA competition assay, mutant Mcl-1 R244A; assay type: binding
T1 construct: implied by Ni2+-NTA purification from pET-43.1a(+)); made in house; host or cells: E. coli BL21
Protocol: (§11) 1 protein was induced by 0.6 mM IPTG for 20 h in the Flow cytometry condition of 20°C, 160 rpm. The strains were harvested by centrifugation (6000 rpm, 10 min, 4°C) and broken Tested cells (A2780, MCF-7 and SMMC-7721) by ultrasonication (10 s operation and 10 s stop, 5 min). were plated in 6-well plates (1×10^5 cells/well) and treated […]
(§12) All cells were detached by trypsin and washed manufacturer ’s instructions. The purified Mcl-1 was (three times) by precooled PBS. The resuspended cells analyzed by 15% SDS-PAGE and dialyzed against 10 mM were stained by Annexin V-FITC and PI in sequence PBS (pH 7.4) before being stored under −80°C for later use. before being detected by flow cytometry.
(§13) FPA competition assays The FITC labelled
(§14) BH3 peptide of Mcl-1 (FITC-Mcl-BH3, FITC-AHx-Western blot analysis […]
(§15) and used as fluorescence probe in the FPA competition A2780, MCF-7 and SMMC-7721 cells treated with assays. All assays were performed in the assay and without Comp8 were harvested, washed by precooled

Mcl-1H205A = target: T2, Mcl-1H205A (Homo sapiens, UniProt Q07820, H224A); assay: FPA competition assay, mutant Mcl-1 H205A; assay type: binding
T2 construct: implied by Ni2+-NTA purification from pET-43.1a(+)); made in house; host or cells: E. coli BL21
Protocol: as §11, §12, §13, §14, §15

Mcl-1D237A = target: T3, Mcl-1D237A (Homo sapiens, UniProt Q07820, D256A); assay: FPA competition assay, mutant Mcl-1 D237A; assay type: binding
T3 construct: implied by Ni2+-NTA purification from pET-43.1a(+)); made in house; host or cells: E. coli BL21
Protocol: as §11, §12, §13, §14, §15

Mcl-1N241A = target: T4, Mcl-1N241A (Homo sapiens, UniProt Q07820, N260A); assay: FPA competition assay, mutant Mcl-1 N241A; assay type: binding
T4 construct: implied by Ni2+-NTA purification from pET-43.1a(+)); made in house; host or cells: E. coli BL21
Protocol: as §11, §12, §13, §14, §15

[4] = test system: A2780, MCF-7 and SMMC-7721; assay: Flow cytometry detection of apoptosis (Annexin V-FITC/PI); assay type: cell-based; conditions: 48h; 47.42 μM for A2780 and MCF-7, 27.80 μM for SMMC-7721
Protocol: After cleared by centrifugation (12000 rpm, 30 min) and with/without the given concentration of Comp8 for 48h filtration (0.44 μm filter membrane), the lysate was purified (47.42 μM for A2780 and MCF-7, 27.80 μM for SMMC-by Ni2+-NTA sepharose gel column (7Sea) following the 7721). All cells were detached by trypsin and washed manufacturer ’s instructions. The purified Mcl-1 was (three times) by precooled PBS. The resuspended cells analyzed by 15% SDS-PAGE and dialyzed against 10 mM were stained by Annexin V-FITC and PI in sequence PBS (pH 7.4) before being stored under −80°C for later use. before being detected by flow cytometry. […]
as §1, §2, §3, §4
Cell lines including A2780, MCF-7 and SMMC- assays in combination. According to the results of pairwise 7721 were cultured to the logarithmic growth phase per-residue free energy decomposition, the residues in 3 ml complete media (RPMI1640 plus 10%FBS), contributing a lot to the binding of PUMA/Comp8 to 4 Mcl-1 were subjected to site-directed mutagenesis. […]

[5] = test system: Caspase-3, Cyto-c and Bcl-2 in A2780, MCF-7 and SMMC-7721 cells; assay: Western blot analysis of apoptotic marker proteins; assay type: cell-based
Protocol: as §14
-NH2) was synthesized […]
and used as fluorescence probe in the FPA competition A2780, MCF-7 and SMMC-7721 cells treated with assays. All assays were performed in the assay and without Comp8 were harvested, washed by precooled buffer (pH 7.4) composed of 20 mM Tris, 50 mM NaCl, PBS and split by RIPA lysis buffer (Thermo) containing 3 mM DTT and 2% DMSO. The FPA competition assays PMSF (protease inhibitor). Quantified protein samples were carried out in the 96-well, black, flat-bottom plates were separated by SDS-PAGE and then transferred to NC (Nunc). To check the interference effects of candidate membranes. After being blocked for 1h, all membranes compounds on the interaction between Mcl-1 and FITC- were incubated with primary antibodies against protein Mcl-BH3, solutions containing 250 nM Mcl-1 and 250 nM Caspase (1:500, Abcam), Cyto-c (1:500, Abcam) and fluorescence probes were titrated with 250 μM selected Bcl-2 (1:500, Abcam) at 4℃ overnight. […] The emission fluorescence changes were antibodies (1:10000, Jackson) for 1 h at 37°C, the signals recorded from 480 to 540 nm by TECAN Infinite M1000 were detected with ECL western blot detection system Microplate Spectrophotometer with excitation wavelength (Boster). being 432 nm. […]

Mcl-1F251A = target: T5, Mcl-1F251A (Homo sapiens, UniProt Q07820, F270A); assay: FPA competition assay, mutant Mcl-1 F251A; assay type: binding
T5 construct: implied by Ni2+-NTA purification from pET-43.1a(+)); made in house; host or cells: E. coli BL21
Protocol: as §11, §12, §13, §14, §15

Mcl-1WT = target: T6, Mcl-1WT (Homo sapiens, UniProt Q07820); assay: FPA competition assay, wildtype Mcl-1; assay type: binding; conditions: FITC-Mcl-BH3 probe
T6 construct: implied by Ni2+-NTA purification from pET-43.1a(+)); made in house; host or cells: E. coli BL21

Mcl-1 = conditions: known Mcl-1 inhibitor; cited from earlier work

T2 sequence (Q07820 172-327 H224A): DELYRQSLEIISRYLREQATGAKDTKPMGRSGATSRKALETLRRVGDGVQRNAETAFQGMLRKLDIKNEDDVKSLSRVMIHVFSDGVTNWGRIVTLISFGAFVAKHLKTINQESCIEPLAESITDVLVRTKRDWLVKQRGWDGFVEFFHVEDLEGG
T1 sequence (Q07820 172-327 R263A): as the sequence (Q07820 172-327 H224A) above, with A53H, R92A counted along it
T4 sequence (Q07820 172-327 N260A): as the sequence (Q07820 172-327 H224A) above, with A53H, N89A counted along it
T3 sequence (Q07820 172-327 D256A): as the sequence (Q07820 172-327 H224A) above, with A53H, D85A counted along it
T6 sequence (Q07820 172-327): as the sequence (Q07820 172-327 H224A) above, with A53H counted along it
T5 sequence (Q07820 172-327 F270A): as the sequence (Q07820 172-327 H224A) above, with A53H, F99A counted along it

| Structure (SMILES) | IC50 [1] [µM] | IC50 (SMMC-7721 cells) [µM] | EC50 ([2]; read-out: EC50 (action on apoptosis)) [µM] | IC50 (A2780 cells) [µM] | IC50 (MCF-7 cells) [µM] | effect on PUMA-induced apoptosis of HUVECs [3] | Ki (Mcl-1R244A) [µM] | Ki (Mcl-1H205A) [µM] | Ki (Mcl-1D237A) [µM] | Ki (Mcl-1N241A) [µM] | apoptotic cells (FCM) [4] | IC50 ([2]; read-out: IC50 (inhibition of PUMA-dependent apoptosis)) [µM] | changes of three apoptosis indicators (WB) [5] | Ki (Mcl-1F251A) [µM] | Ki (Mcl-1WT) [µM] | Ki (Mcl-1) [µM] |
| --- | --- | --- | --- | --- | --- | --- | --- | --- | --- | --- | --- | --- | --- | --- | --- | --- |
| CC1(C)CCC(c2ccc(Cl)cc2)=C(CN2CCN(c3ccc(C(=O)NS(=O)(=O)c4ccc(N[C@H](CCN5CCOCC5)CSc5ccccc5)c(S(=O)(=O)C(F)(F)F)c4)cc3)CC2)C1 [ABT-263, reference compound] | 20 to 50 | 29.5 ± 1.36 | 2.75 ± 0.24 | 21.8 ± 1.85 | 32 ± 3.48 |  |  |  |  |  |  |  |  |  |  |  |
| O=C1N=C(N2CCN(CCO)CC2)S/C1=C\c1ccc(-c2ccccc2)cc1 [Comp8] | 20 to 50 | 44.2 ± 2.22 |  | 47.6 ± 2.99 | 44.2 ± 2.3 | inhibitory effect | 3.52 ± 0.59 | 1.24 ± 0.35 | 1.98 ± 0.31 | 1.95 ± 0.45 | substantial increase of apoptotic cells | 38.9 ± 0.91 | fitted well with the characteristics of apoptosis | 0.66 ± 0.13 | 0.3 ± 0.04 |  |
| O=C(O)CSc1cc(NS(=O)(=O)c2ccc(Br)cc2)c2ccccc2c1O [UMI-77] |  |  |  |  |  |  |  |  |  |  |  |  |  |  |  | 0.49 |
